Patent publication US10175229B2, “Rapid method for measuring cytotoxicity in non-RI system” (NAGASAKI UNIVERSITY, priority 2014, dated 2019)

System: Histiocytoma U937 cells
Assay: Spontaneous and maximum release of labeled compound, time-resolved fluorometric assay (Eu assay)
Assay type: cell-based
Conditions: for maximum release (B) / spontaneous release (A): U937 cells labeled with 25 μM compound for 15 min; for maximum release (B): lysed with 0.125% digitonin in 19% DMSO, time-resolved fluorescence with europium solution; for spontaneous release (A): supernatant added to europium solution, time-resolved fluorescence, wells without digitonin; for spontaneous release (%) (C) (100 × A/B): U937 cells, 25 μM compound, ratio of spontaneous to maximum release
Procedure: Histiocytoma U937 cells were cultured in 30 mL of RPMI1640 medium under the conditions of 37° C., 5% CO2 overnight, the culture medium (30 mL) was placed in a 50 mL conical tube, and the cell number was counted. After centrifugation at 1700 rpm at 4° C. for 5 min, the supernatant was removed, and the cell pellets were resuspended in RPMI1640 medium at 1×10^6 cells/mL. To the cell suspension (1 mL) in a 15 mL conical tube was added 2.5 μL of a compound represented by the formula (I) or a salt thereof (10 mM stock solution) (final concentration: 25 μM), and the mixture was incubated under the conditions of 37° C., 5% CO2 for 15 min. The cells were washed 3 times with 5 mL of RPMI1640 medium, and resuspended in 5 mL of RPMI1640 medium. The cell suspension (2 mL) was placed in a 15 mL conical tube containing 6 mL of RPMI1640 medium to adjust the cell concentration to 5×10^3 cells/100 μL. The cell suspension (100 μL) was seeded in 6 wells of a 96 flat bottom plate. 100 μL of RPMI1640 medium was added to wells for determining the amount of spontaneous release, and 90 μL of RPMI1640 medium was added to wells for determining the amount of maximum release. The plates were centrifuged at 500 rpm, room temperature for 2 min and incubated under 37° C., 5% CO2 condition for 30 min. A newly-prepared 0.125% digitonin solution in 19% DMSO (mixed solution of 3 mg digitonin, 0.456 mL DMSO and 1.944 mL H2O) (10 μL) was added to the aforementioned wells for determining the amount of maximum release, mixed well and further incubated for 30 min. After incubation, the cell suspension was mixed well again, and centrifuged at 1700 rpm, room temperature for 2 min. After the centrifugation, the supernatant (25 μL) was carefully transferred into wells containing 250 μL of europium solution in a 96 flat bottom plate, and 200 μL of the solution thereof was placed in a 96-well flat bottom plate.
The plate was allowed to stand for 15 min, and the time-resolved fluorescence was measured by ARVO multiplate reader.

Row | Compound | maximum release (B) | spontaneous release (A) | spontaneous release (%) (C) (100 × A/B)
1 | CC(=O)OCOC(=O)c1cccc(-c2cccc(-c3cccc(C(=O)OCOC(C)=O)n3)n2)n1 [BATDA, bis(acetoxymethyl) 2,2′:6′,2″-terpyridine-6,6″-dicarboxylate, reference compound] | 86785 | 14795 | 17
2 | CCCC(=O)OCOC(=O)c1cccc(-c2cc(OCCO)cc(-c3cccc(C(=O)OCOC(=O)CCC)n3)n2)n1 [Example 1, bis(butyryloxymethyl) 4′-(2-hydroxyethoxy)-2,2′:6′,2″-terpyridine-6,6″-dicarboxylate] | 65576 | 6347 | 9.7
3 | CCCNC(=O)COc1cc(-c2cccc(C(=O)OCOC(C)=O)n2)nc(-c2cccc(C(=O)OCOC(C)=O)n2)c1 [Example 2, bis(acetoxymethyl) 4′-(2-oxo-2-(propylamino)ethoxy)-2,2′:6′,2″-terpyridine-6,6″-dicarboxylate] | 60521 | 7085 | 11.7
4 | CC(=O)OCOC(=O)c1cccc(-c2cc(OCCO)cc(-c3cccc(C(=O)OCOC(C)=O)n3)n2)n1 [Example 3, bis(acetoxymethyl) 4′-(2-hydroxyethoxy)-2,2′:6′,2″-terpyridine-6,6″-dicarboxylate] | 69372 | 4890 | 7
5 | CCCC(=O)OCOC(=O)c1cccc(-c2cc(OCC=O)cc(-c3cccc(C(=O)OCOC(=O)CCC)n3)n2)n1 [Example 4, bis(butyryloxymethyl) 4′-(2-oxyethoxy)-2,2′:6′,2″-terpyridine-6,6″-dicarboxylate] | 43224 | 3590 | 8.3
6 | CCC(=O)OCOC(=O)c1cccc(-c2cc(OCCO)cc(-c3cccc(C(=O)OCOC(=O)CC)n3)n2)n1 [Example 5, bis(propionyloxymethyl) 4′-(2-hydroxyethoxy)-2,2′:6′,2″-terpyridine-6,6″-dicarboxylate] | 78831 | 6991 | 8.9
7 | CCCC(=O)OCOC(=O)c1cccc(-c2cc(OCCCO)cc(-c3cccc(C(=O)OCOC(=O)CCC)n3)n2)n1 [Example 6, bis(butyryloxymethyl) 4′-(3-hydroxypropoxy)-2,2′:6′,2″-terpyridine-6,6″-dicarboxylate] | 103235 | 9538 | 9.2
8 | CCCC(=O)OCOC(=O)c1cccc(-c2cc(OCCOCCO)cc(-c3cccc(C(=O)OCOC(=O)CCC)n3)n2)n1 [Example 7, bis(butyryloxymethyl) 4′-(2-(2-hydroxyethoxy)ethoxy)-2,2′:6′,2″-terpyridine-6,6″-dicarboxylate] | 63594 | 6133 | 9.6
9 | CC(=O)OCOC(=O)c1cccc(-c2cc(CO)cc(-c3cccc(C(=O)OCOC(C)=O)n3)n2)n1 [Example 9, bis(acetoxymethyl) 4′-(hydroxymethyl)-2,2′:6′,2″-terpyridine-6,6″-dicarboxylate] | 127955 | 21343 | 16.7
